Laboratory results from US8669251B2, “8-fluorophthalazin-1(2H)-one compounds” (Genentech, Inc., priority 2011, dated 2014).

Tested on: production of CD69 by B lymphocytes in human whole blood
Experiment: CD69 Whole Blood Assay (CD69 Hu Blood FACS)
Format: cell-based
Settings: human whole blood activated with goat F(ab')2 anti-human IgM, 20 hours; CD69 on CD20 positive cells by FACS; Table 2
Source text: A CD69 Whole Blood Assay can be conducted on Formula I compounds to determine the ability of compounds to inhibit the production of CD69 by B lymphocytes in human whole blood activated by crosslinking surface IgM with goat F(ab′)2 anti-human IgM (Example 907). CD69 is a type II C-type lectin involved in lymphocyte migration and cytokine secretion. CD69 expression represents one of the earliest available indicators of leukocyte activation and its rapid induction occurs through transcriptional activation (Vazquez et al (2009) Jour. of Immunology Published Oct. 19, 2009, doi:10.4049/jimmunol.0900839). Concentration-dependent inhibition of antigen receptor stimulation by selective Btk inhibitors induces cell surface expression of the lymphocyte activation marker CD69 (Honigberg et al (2010) Proc. Natl. Acad. Sci. 107(29):13075-13080). Thus, CD69 inhibition by selective Btk inhibitors may be correlated with therapeutic efficacy of certain B-cell disorders.
Human blood is obtained from healthy volunteers, with the following restrictions: 1 week drug-free, non-smokers. Blood (approximately 20 mls to test 8 compounds) is collected by venipuncture into Vacutainer® (Becton, Dickinson and Co.) tubes with sodium heparin.
Solutions of Formula I and II compounds at 10 mM in DMSO are diluted 1:10 in 100% DMSO, then are diluted by three-fold serial dilutions in 100% DMSO for a ten point dose-response curve. The compounds are further diluted 1:10 in PBS and then an aliquot of 5.5 μl of each compound is added in duplicate to a 2 ml 96-well plate; 5.5 μl of 10% DMSO in PBS is added as control and no-stimulus wells. Human whole blood —HWB (100 μl) is added to each well. After mixing the plates are incubated at 37° C., 5% CO2, 100% humidity for 30 minutes. Goat F(ab′)2 anti-human IgM (10 μl of a 500 μg/ml solution, 50 μg/ml final) is added to each well (except the no-stimulus wells) with mixing and the plates are incubated for an additional 20 hours. At the end of the 20 hour incubation, samples are incubated with fluorescent labeled antibodies for 30 minutes, at 37° C., 5% CO2, 100% humidity. Include induced control, unstained and single stains for compensation adjustments and initial voltage settings. Samples are then lysed with PharM Lyse™ (BD Biosciences Pharmingen) according to the manufacturer's instructions. Samples are then transferred to a 96 well plate suitable to be run on the BD Biosciences HTS 96 well system on the LSRII machine. Data acquired and Mean Fluorescence Intensity values were obtained using BD Biosciences DIVA Software. Results are initially analyzed by FACS analysis software (Flow Jo). […] The inhibitory concentration (IC50, IC70, IC90) values are calculated by Prism version 5, using a nonlinear regression curve fit.

| SMILES | CD69 Hu Blood FACS (IC70) |
| --- | --- |
| CCn1ccc(Nc2cc(-c3ccnc(-n4ncc5cc(C(C)(C)C)cc(F)c5c4=O)c3CO)cn(C)c2=O)n1 [Compound 142, 6-tert-butyl-2-[4-[5-[(1-ethylpyrazol-3-yl)amino]-1-methyl-6-oxo-3-pyridyl]-3-(hydroxymethyl)-2-pyridyl]-8-fluoro-phthalazin-1-one] | 0.168 µM |
| COCc1cc(Nc2cc(-c3ccnc(-n4ncc5cc(C(C)(C)C)cc(F)c5c4=O)c3CO)cn(C)c2=O)nn1C [Compound 143, 6-tert-butyl-8-fluoro-2-[3-(hydroxymethyl)-4-[5-[[5-(methoxymethyl)-1-methyl-pyrazol-3-yl]amino]-1-methyl-6-oxo-3-pyridyl]-2-pyridyl]phthalazin-1-one] | 0.0131 µM |
| Cn1nc(Nc2cc(-c3ccnc(-n4ncc5cc(C(C)(C)C)cc(F)c5c4=O)c3CO)cn(C)c2=O)cc1C(=O)N1CCCC1 [Compound 144, 6-tert-butyl-8-fluoro-2-[3-(hydroxymethyl)-4-[1-methyl-5-[[1-methyl-5-(pyrrolidine-1-carbonyl)pyrazol-3-yl]amino]-6-oxo-3-pyridyl]-2-pyridyl]phthalazin-1-one] | 0.0203 µM |
| Cc1cc(Nc2cc(-c3ccnc(-n4ncc5cc(C(C)(C)C)cc(F)c5c4=O)c3CO)cn(C)c2=O)nn1CC(F)F [Compound 145, 6-tert-butyl-2-[4-[5-[[1-(2,2-difluoroethyl)-5-methyl-pyrazol-3-yl]amino]-1-methyl-6-oxo-3-pyridyl]-3-(hydroxymethyl)-2-pyridyl]-8-fluoro-phthalazin-1-one] | 0.163 µM |
| CN1Cc2cc(Nc3cc(-c4ccnc(-n5ncc6cc(C(C)(C)C)cc(F)c6c5=O)c4CO)cn(C)c3=O)nn2CC1=O [Compound 146, 6-tert-butyl-8-fluoro-2-[3-(hydroxymethyl)-4-[1-methyl-5-[(5-methyl-6-oxo-4,7-dihydropyrazolo[1,5-a]pyrazin-2-yl)amino]-6-oxo-3-pyridyl]-2-pyridyl]phthalazin-1-one] | 0.0209 µM |
| Cn1cc(-c2ccnc(-n3ncc4cc(C(C)(C)C)cc(F)c4c3=O)c2CO)cc(Nc2ccc(N3CC(O)C3)cn2)c1=O [Compound 147, 6-tert-butyl-8-fluoro-2-[4-[5-[[5-(3-hydroxyazetidin-1-yl)-2-pyridyl]amino]-1-methyl-6-oxo-3-pyridyl]-3-(hydroxymethyl)-2-pyridyl]phthalazin-1-one] | 0.0333 µM |
| CC(C)C(=O)N1CCn2nc(Nc3cc(-c4ccnc(-n5ncc6cc(C(C)(C)C)cc(F)c6c5=O)c4CO)cn(C)c3=O)cc2C1 [Compound 148, 6-tert-butyl-8-fluoro-2-[3-(hydroxymethyl)-4-[1-methyl-5-[[5-(2-methylpropanoyl)-6,7-dihydro-4H-pyrazolo[1,5-a]pyrazin-2-yl]amino]-6-oxo-3-pyridyl]-2-pyridyl]phthalazin-1-one] | 0.0139 µM |
| Cn1cc(Nc2cc(-c3ccnc(-n4ncc5cc(C(C)(C)C)cc(F)c5c4=O)c3CO)cn(C)c2=O)nn1 [Compound 149, 6-tert-butyl-8-fluoro-2-[3-(hydroxymethyl)-4-[1-methyl-5-[(1-methyltriazol-4-yl)amino]-6-oxo-3-pyridyl]-2-pyridyl]phthalazin-1-one] | 0.093 µM |
| CC1OCCn2nc(Nc3cc(-c4ccnc(-n5ncc6cc(C(C)(C)C)cc(F)c6c5=O)c4CO)cn(C)c3=O)cc21 (stereo not shown) [Compound 150, 6-tert-butyl-8-fluoro-2-[3-(hydroxymethyl)-4-[1-methyl-5-[(4-methyl-6,7-dihydro-4H-pyrazolo[5,1-c][1,4]oxazin-2-yl)amino]-6-oxo-3-pyridyl]-2-pyridyl]phthalazin-1-one] | 0.0428 µM |
| CC(C)N1Cc2cc(Nc3cc(-c4ccnc(-n5ncc6cc(C(C)(C)C)cc(F)c6c5=O)c4CO)cn(C)c3=O)nn2CC1=O [Compound 151, 6-tert-butyl-8-fluoro-2-[3-(hydroxymethyl)-4-[5-[(5-isopropyl-6-oxo-4,7-dihydropyrazolo[1,5-a]pyrazin-2-yl)amino]-1-methyl-6-oxo-3-pyridyl]-2-pyridyl]phthalazin-1-one] | 0.0141 µM |
